Several values for one entry are separate records, joined by “and”; a condition that tells them apart may be missing. Identical values can stand only once.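 These data come from cells grown in 96-well plates and exposed to compound for 48 hours at five concentrations. GI50 = concentration required for 50% inhibition of growth.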 Activity calls are given as the source filed them. No stated cut-off is given here; in the data, active = GI50 up to about 1.1 µM and inactive = higher.
Tests used:
Experiment in all cases: inhibition of tumour cell growth, NCI panel, 48 h
[1] = test system: SW-620
[2] = test system: SK-MEL-5
[3] = test system: SNB-19
[4] = test system: OVCAR-4
[5] = test system: CAKI-1
[6] = test system: RXF 393
[7] = test system: RPMI-8226
[8] = test system: SF-295
[9] = test system: SK-OV-3
[10] = test system: BT-549
[11] = test system: Malme-3M
[12] = test system: U-251
[13] = test system: HOP-62
[14] = test system: UACC-62
[15] = test system: LOX IMVI
[16] = test system: EKVX
[17] = test system: Hs-578T
[18] = test system: NCI/ADR-RES
[19] = test system: HCT-15
[20] = test system: MDA-MB-231
[21] = test system: SK-MEL-2
[22] = test system: NCI-H522
[23] = test system: PC-3
[24] = test system: OVCAR-8
[25] = test system: SF-268
[26] = test system: SN12C
[27] = test system: NCI-H460
[28] = test system: A498
[29] = test system: ACHN
[30] = test system: HOP-92
[31] = test system: NCI-H23
[32] = test system: MCF7
[33] = test system: SF-539
[34] = test system: T47D
[35] = test system: SNB-75
[36] = test system: NCI-H226
[37] = test system: UACC-257
[38] = test system: HCC 2998
[39] = test system: 786-0
[40] = test system: HCT-116
[41] = test system: MDA-N
[42] = test system: COLO 205
[43] = test system: UO-31
[44] = test system: DU-145
[45] = test system: SK-MEL-28
[46] = test system: OVCAR-3
[47] = test system: CCRF-CEM
[48] = test system: HL-60
[49] = test system: HT-29
[50] = test system: SR
[51] = test system: MOLT-4
[52] = test system: M14
[53] = test system: MDA-MB-435
[54] = test system: K562
[55] = test system: TK-10
[56] = test system: KM12
[57] = test system: A549
[58] = test system: OVCAR-5
[59] = test system: IGROV-1

`COc1ccc(-c2c(C#N)c(N)n(C3OC(COC(C)=O)C(OC(C)=O)C(OC(C)=O)C3OC(C)=O)c(=S)c2C#N)cc1` (configuration not stated) was tested, and the GI50 [1] was > 100 µM (inactive), the GI50 [2] was 23.4 µM (inactive) and 21.7 µM (inactive) and the GI50 [3] was 40 µM (inactive) and 55.8 µM (inactive). The GI50 [4] was 24.4 µM (inactive) and 23.4 µM (inactive), the GI50 [5] was 34.6 µM (inactive) and 53.1 µM (inactive) and the GI50 [6] was 29.5 µM (inactive) and 24.5 µM (inactive). For the same compound, the GI50 [7] was 26.1 µM (inactive) and 30.8 µM (inactive), the GI50 [8] was 40.5 µM (inactive) and 35.7 µM (inactive) and the GI50 [9] was 29.4 µM (inactive) and 26.2 µM (inactive). For the same compound, the GI50 [10] was 26.1 µM (inactive) and 26.7 µM (inactive), the GI50 [11] was 43.9 µM (inactive) and 23.9 µM (inactive) and the GI50 [12] was 46.5 µM (inactive) and 31.7 µM (inactive). The GI50 [13] was 28.6 µM (inactive) and 19.8 µM (inactive), the GI50 [14] was 20.8 µM (inactive) and 20 µM (inactive) and the GI50 [15] was 34.3 µM (inactive) and 32.9 µM (inactive). The GI50 [16] was 26.5 µM (inactive) and 30 µM (inactive), the GI50 [17] was 36.6 µM (inactive) and 27.4 µM (inactive) and the GI50 [18] was > 100 µM (inactive) and 75.2 µM (inactive). The GI50 [19] was 50.2 µM, the GI50 [20] was 27.9 µM (inactive) and 29.9 µM (inactive) and the GI50 [21] was 22.8 µM (inactive) and 24.2 µM (inactive). For the same compound, the GI50 [22] was 23.3 µM (inactive) and 25.6 µM (inactive), the GI50 [23] was 35.8 µM (inactive) and 37.8 µM (inactive) and the GI50 [24] was 34.2 µM (inactive) and 21.3 µM (inactive). For the same compound, the GI50 [25] was 21.4 µM (inactive) and 25.5 µM (inactive), the GI50 [26] was 76.4 µM (inactive) and 43.3 µM (inactive) and the GI50 [27] was 47 µM (inactive) and 61.4 µM (inactive). For the same compound, the GI50 [28] was 33.7 µM (inactive) and 28.6 µM (inactive), the GI50 [29] was 50.8 µM (inactive) and 33.6 µM (inactive) and the GI50 [30] was 17.1 µM (inactive) and 19.2 µM (inactive). The GI50 [31] was 44 µM (inactive) and 58.6 µM (inactive), the GI50 [32] was 29 µM (inactive) and 22.2 µM (inactive) and the GI50 [33] was 22.9 µM (inactive) and 40.1 µM (inactive). For the same compound, the GI50 [34] was 18.6 µM (inactive) and 28.3 µM (inactive), the GI50 [35] was 17.5 µM (inactive) and 15.6 µM (inactive) and the GI50 [36] was 50.1 µM (inactive) and 91 µM (inactive). The GI50 [37] was 43.1 µM (inactive) and 23.7 µM (inactive), the GI50 [38] was 30.3 µM (inactive) and 18.2 µM (inactive) and the GI50 [39] was 27.7 µM (inactive) and 28.6 µM (inactive). The GI50 [40] was 55.5 µM (inactive) and 39.4 µM (inactive).
With `COc1cc(C(=O)N(Cc2cccnc2)C(=S)N(Cc2cccnc2)C(=O)c2cc(OC)c(OC)c(OC)c2)cc(OC)c1OC` the GI50 [1] was 32.9 µM (inactive), the GI50 [2] was 76.9 µM (inactive) and the GI50 [41] was 36 µM (inactive). The GI50 [42] was 35 µM (inactive), the GI50 [3] was > 100 µM (inactive) and the GI50 [4] was 17.8 µM (inactive). For the same compound, the GI50 [43] was 49.8 µM (inactive), the GI50 [5] was 30.4 µM (inactive) and the GI50 [44] was 52.2 µM (inactive). The GI50 [6] was 38.4 µM (inactive), the GI50 [7] was 56.6 µM (inactive) and the GI50 [45] was > 100 µM (inactive). For the same compound, the GI50 [8] was > 100 µM (inactive), the GI50 [9] was > 100 µM (inactive) and the GI50 [10] was 28.5 µM (inactive). For the same compound, the GI50 [11] was 89.7 µM (inactive), the GI50 [46] was 34.4 µM (inactive) and the GI50 [13] was 37.5 µM (inactive). The GI50 [14] was 31.6 µM (inactive), the GI50 [15] was 30.7 µM (inactive) and the GI50 [16] was > 100 µM (inactive). For the same compound, the GI50 [17] was > 100 µM (inactive), the GI50 [18] was > 100 µM (inactive) and the GI50 [19] was 37.7 µM. For the same compound, the GI50 [22] was 23.9 µM (inactive), the GI50 [47] was 30.3 µM (inactive) and the GI50 [24] was 28.7 µM (inactive). For the same compound, the GI50 [25] was 40.4 µM (inactive), the GI50 [48] was 37.2 µM (inactive) and the GI50 [26] was 37.9 µM (inactive). For the same compound, the GI50 [27] was 94 µM (inactive), the GI50 [49] was 35.4 µM (inactive) and the GI50 [28] was 23.2 µM (inactive). The GI50 [29] was > 100 µM (inactive), the GI50 [30] was 15.1 µM (inactive) and the GI50 [50] was 48.3 µM (inactive). For the same compound, the GI50 [51] was 54.2 µM (inactive), the GI50 [31] was 49.2 µM (inactive) and the GI50 [32] was 19.9 µM (inactive). The GI50 [52] was 94.8 µM (inactive), the GI50 [33] was > 100 µM (inactive) and the GI50 [34] was 34.9 µM (inactive). The GI50 [35] was 21.4 µM (inactive), the GI50 [36] was > 100 µM (inactive) and the GI50 [37] was 70 µM (inactive). The GI50 [53] was 31 µM (inactive), the GI50 [54] was 52 µM (inactive) and the GI50 [55] was 89.1 µM (inactive). For the same compound, the GI50 [56] was 22.4 µM (inactive), the GI50 [38] was 24.3 µM (inactive) and the GI50 [57] was > 100 µM (inactive). The GI50 [58] was > 100 µM (inactive), the GI50 [39] was 36.2 µM (inactive) and the GI50 [40] was 31 µM (inactive).
With `CC(C)/C(Cl)=N\OC(=O)Nc1cccc(F)c1` the GI50 [1] was 2.23 µM (inactive), the GI50 [2] was 15 µM (inactive) and the GI50 [41] was 15.4 µM (inactive). For the same compound, the GI50 [42] was 2.44 µM (inactive), the GI50 [3] was > 100 µM (inactive) and the GI50 [4] was 11.7 µM (inactive). The GI50 [43] was 18.6 µM (inactive), the GI50 [5] was 16 µM (inactive) and the GI50 [44] was 18.4 µM (inactive). The GI50 [6] was 17.1 µM (inactive), the GI50 [7] was 4.34 µM (inactive) and the GI50 [45] was 16.2 µM (inactive). The GI50 [8] was 32.9 µM (inactive), the GI50 [9] was 19.7 µM (inactive) and the GI50 [10] was 2.66 µM (inactive). The GI50 [11] was 6.24 µM (inactive), the GI50 [12] was 17.2 µM (inactive) and the GI50 [46] was 17 µM (inactive). The GI50 [13] was > 31.6 µM (inactive), the GI50 [14] was 20.4 µM (inactive) and the GI50 [15] was 2.14 µM (inactive). For the same compound, the GI50 [16] was 16.7 µM (inactive), the GI50 [17] was 26.5 µM (inactive) and the GI50 [18] was 17.1 µM (inactive). The GI50 [19] was 15.8 µM, the GI50 [20] was 16.9 µM (inactive) and the GI50 [21] was 7.76 µM (inactive). For the same compound, the GI50 [59] was 18.6 µM (inactive), the GI50 [22] was 1.49 µM (inactive) and the GI50 [23] was 16.4 µM (inactive). The GI50 [47] was 1.9 µM (inactive), the GI50 [24] was 17 µM (inactive) and the GI50 [25] was 19.6 µM (inactive). For the same compound, the GI50 [48] was 1.96 µM (inactive), the GI50 [26] was 16.5 µM (inactive) and the GI50 [27] was 27.4 µM (inactive). The GI50 [49] was 18.3 µM (inactive), the GI50 [28] was 12.9 µM (inactive) and the GI50 [29] was 14.6 µM (inactive). For the same compound, the GI50 [30] was 1.46 µM (inactive), the GI50 [50] was 2.35 µM (inactive) and the GI50 [51] was 2.28 µM (inactive). For the same compound, the GI50 [31] was 15.9 µM (inactive), the GI50 [32] was 11 µM (inactive) and the GI50 [52] was 0.933 µM (active). The GI50 [33] was 18.6 µM (inactive), the GI50 [34] was 24.8 µM (inactive) and the GI50 [35] was 22.6 µM (inactive). For the same compound, the GI50 [36] was 17.2 µM (inactive), the GI50 [37] was 15.8 µM (inactive) and the GI50 [54] was 2.19 µM (inactive). The GI50 [55] was 14.8 µM (inactive), the GI50 [56] was 12.1 µM (inactive) and the GI50 [38] was 19.3 µM (inactive). The GI50 [57] was 17.5 µM (inactive), the GI50 [58] was 17.7 µM (inactive) and the GI50 [39] was 16 µM (inactive). For the same compound, the GI50 [40] was 16.1 µM (inactive).
